From patent US11198713B2, “Agents modulating beta-catenin functions and methods thereof” (FOG PHARMACEUTICALS, INC., priority 2017, dated 2021)
pEC50: −log10 of the molar value. Values after ≈ are worked out from the molar mass of the structure shown. Where two headings read alike, the source gives them in different places. Numbered stars: 1 amine (or outer) side, 2 acyl side, 3 side chain; on linkers, the order of the positions; unused ones are H or OH. Bridge positions count the residues as written; N and C are the ends. Square brackets hold non-standard residues; d marks the D form. Peptide text beside a SMILES is read from it. * marks the point of attachment. dαMeDab(Me) = CN(CC[C@@](C)(N[*:1])C(=O)[*:2])[*:3]; X6 = CN(CC=[*:3])CC[C@](C)(N[*:1])C(=O)[*:2]; X4 = O=C([C@]1(N[*:1])CCN(CC=[*:3])C1)[*:2]; X5 = C[C@](CCCCCC=[*:3])(N[*:1])C(=O)[*:2]; X1 = O=C([C@]1(N[*:1])CCN([*:3])C1)[*:2]; X2 = O=C(OCC=CCOC(=O)[*:2])[*:1]; R8 = C=CCCCCCC[C@@](C)(N)C(=O)O; Lauroyl = CCCCCCCCCCCC(=O)*; Octanoyl = CCCCCCCC(=O)*

Columns and labels:
[1] = target: T1, full-length beta-catenin (Axin site) (Homo sapiens, UniProt P35222); experiment: Competition fluorescence polarization assay (Axin site probe); assay type: binding; conditions: competition fluorescence polarization, Table 2; read-out: in vitro FP EC50
T1 construct: 15 nM full-length beta-catenin, 20 nM FITC labeled peptide in buffer
T1 sequence (P35222 1-781): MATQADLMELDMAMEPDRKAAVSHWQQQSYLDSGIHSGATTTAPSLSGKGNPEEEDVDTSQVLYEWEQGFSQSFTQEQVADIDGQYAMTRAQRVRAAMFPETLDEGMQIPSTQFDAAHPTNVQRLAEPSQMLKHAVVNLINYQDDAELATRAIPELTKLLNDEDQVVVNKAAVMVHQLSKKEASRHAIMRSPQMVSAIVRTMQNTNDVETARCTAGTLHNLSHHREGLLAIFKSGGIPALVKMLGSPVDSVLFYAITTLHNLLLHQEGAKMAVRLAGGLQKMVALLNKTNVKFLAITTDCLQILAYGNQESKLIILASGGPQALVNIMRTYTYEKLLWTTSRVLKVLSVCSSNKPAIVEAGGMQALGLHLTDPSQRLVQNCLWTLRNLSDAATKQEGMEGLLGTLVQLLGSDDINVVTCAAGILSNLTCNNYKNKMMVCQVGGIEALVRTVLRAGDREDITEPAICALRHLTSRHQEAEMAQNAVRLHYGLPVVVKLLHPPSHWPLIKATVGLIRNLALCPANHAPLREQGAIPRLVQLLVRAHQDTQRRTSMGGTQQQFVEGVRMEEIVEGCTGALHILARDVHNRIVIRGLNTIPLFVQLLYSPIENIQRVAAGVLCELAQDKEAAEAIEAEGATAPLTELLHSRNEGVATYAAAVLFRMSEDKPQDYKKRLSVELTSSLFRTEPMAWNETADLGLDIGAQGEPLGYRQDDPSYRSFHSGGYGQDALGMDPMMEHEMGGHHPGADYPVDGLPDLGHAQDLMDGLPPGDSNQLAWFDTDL
Outline: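 Competition FP: 15 nM full-length β-catenin pre-incubated 5 min with 20 nM FITC-labelled stapled Axin-site peptide, then titrated peptide added (3-fold series from 5 μM) for 15 min in the dark. Buffer 50 mM Tris pH 8.0, 250 mM NaCl, 2% glycerol, 0.5 mM EDTA; duplicate reads.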

[2] = Solubility in DPBS (A280 of supernatant); assay type: physicochemical; conditions: for Solubility in DPBS: Table 3 Part A
Method: Suitable assays for assessing solubility are widely known in the art and can be utilized in accordance with the present disclosure. In some embodiments, in an exemplary protocol, dried peptide was reconstituted in DPBS (DPBS, 1×, cell culture grade, Sigma D8537) in triplicate, vortexed, sonicated and then centrifuged. Absorbance of the supernatant was measured at A280 (Nanodrop 2000) and the concentration was determined using the extinction coefficient for tryptophan. Exemplary solubility data are presented in, e.g., Table 2.

[3] = DPBS, Table 2, read-out: Solubility
[4] = DPBS, Table 3 Part B, amino-stapled product, read-out: Solubility in DPBS

SMILES | pEC50 [1] | Solubility in DPBS ([2]; DPBS) | solubility [2, 3] | also measured
CC[C@H](C)[C@@H]1NC(=O)[C@H](Cc2c[nH]cn2)NC(=O)[C@H](C)NC(=O)[C@H](CC(=O)O)NC(=O)[C@H](CC(C)C)NC(=O)[C@H]([C@@H](C)CC)NC(=O)[C@](C)(NC(=O)[C@H](C)NC(C)=O)CCCC=CCOC(=O)N(C)CCC[C@@](C)(C(=O)N[C@@H](CCCNC(=N)N)C(=O)N[C@H](C(=O)N[C@@H](Cc2c[nH]c3ccccc23)C(N)=O)C(C)C)NC1=O (single isomer, unassigned) [FP0510c Isomer 1, Ac-A-R5-I-L-D-A-H-I-MH-R-V-W-NH2] | > 7.00 | 65 (Isomer 1) μM | – | –
CC[C@H](C)[C@@H]1NC(=O)[C@H](Cc2c[nH]cn2)NC(=O)[C@H](C)NC(=O)[C@H](CC(=O)O)NC(=O)[C@H](CC(C)C)NC(=O)[C@H]([C@@H](C)CC)NC(=O)[C@](C)(NC(=O)[C@H](C)NC(C)=O)CCCC=CCOC(=O)N(C)CCC[C@@](C)(C(=O)N[C@@H](CCCNC(=N)N)C(=O)N[C@H](C(=O)N[C@@H](Cc2c[nH]c3ccccc23)C(N)=O)C(C)C)NC1=O (single isomer, unassigned) [FP0510c Isomer 2, Ac-A-R5-I-L-D-A-H-I-MH-R-V-W-NH2] | > 7.00 | 31 (Isomer 2) μM | – | –
CC[C@H](C)[C@@H]1NC(=O)[C@H](Cc2c[nH]cn2)NC(=O)[C@H](C)NC(=O)[C@H](CC(=O)O)NC(=O)[C@H](CC(C)C)NC(=O)[C@H]([C@@H](C)CC)NC(=O)[C@](C)(NC(=O)[C@H](C)NC(C)=O)CCCCC=CCOC(=O)N(C)CCC[C@@](C)(C(=O)N[C@@H](CCCNC(=N)N)C(=O)N[C@H](C(=O)N[C@@H](Cc2c[nH]c3ccccc23)C(N)=O)C(C)C)NC1=O (single isomer, unassigned) [FP0511c Isomer 1, Ac-A-R6-I-L-D-A-H-I-MH-R-V-W-NH2] | > 7.00 | 49 (Isomer 1) μM | – | –
CC[C@H](C)[C@@H]1NC(=O)[C@H](Cc2c[nH]cn2)NC(=O)[C@H](C)NC(=O)[C@H](CC(=O)O)NC(=O)[C@H](CC(C)C)NC(=O)[C@H]([C@@H](C)CC)NC(=O)[C@](C)(NC(=O)[C@H](C)NC(C)=O)CCCCC=CCOC(=O)N(C)CCC[C@@](C)(C(=O)N[C@@H](CCCNC(=N)N)C(=O)N[C@H](C(=O)N[C@@H](Cc2c[nH]c3ccccc23)C(N)=O)C(C)C)NC1=O (single isomer, unassigned) [FP0511c Isomer 2, Ac-A-R6-I-L-D-A-H-I-MH-R-V-W-NH2] | > 7.00 | 24 (Isomer 2) μM | – | –
CC[C@H](C)[C@@H]1NC(=O)[C@H](Cc2c[nH]cn2)NC(=O)[C@H](C)NC(=O)[C@H](CC(=O)O)NC(=O)[C@H](CC(C)C)NC(=O)[C@H]([C@@H](C)CC)NC(=O)[C@](C)(NC(=O)[C@H](C)NC(C)=O)CCCCCCC=CCOC(=O)N2CC[C@@](C(=O)N[C@@H](CCCNC(=N)N)C(=O)N[C@H](C(=O)N[C@@H](Cc3c[nH]c4ccccc34)C(N)=O)C(C)C)(C2)NC1=O (single isomer, unassigned) [FPO217c, Ac-AR8ILDAHIMBRVW (SEQ ID NO: 280)] | – | – | – | solubility thermodynamic ([2]; DPBS, read-out: solubility): 7 µM (≈ 11.1 µg/mL)
CC[C@H](C)[C@@H]1NC(=O)[C@H](Cc2c[nH]cn2)NC(=O)[C@H](C)NC(=O)[C@H](CC(=O)O)NC(=O)[C@H](CC(C)C)NC(=O)[C@H]([C@@H](C)CC)NC(=O)[C@](C)(NC(=O)[C@H](C)NC(=O)CCN)CCCCCCC=CCOC(=O)N2CC[C@@](C(=O)N[C@@H](CCCNC(=N)N)C(=O)N[C@H](C(=O)N[C@@H](Cc3c[nH]c4ccccc34)C(N)=O)C(C)C)(C2)NC1=O [FP0217c_bAfree, bA-A-R8-I-L-D-A-H-I-MB-R-V-W-NH2] | > 7.00 | – | 155 µM (≈ 250 µg/mL) | –
CC[C@H](C)[C@@H]1NC(=O)[C@H](Cc2c[nH]cn2)NC(=O)[C@H](C)NC(=O)[C@H](CC(=O)O)NC(=O)[C@H](CC(C)C)NC(=O)[C@H]([C@@H](C)CC)NC(=O)[C@](C)(NC(=O)[C@H](C)NC(C)=O)CCCCCCCCCOC(=O)N2CC[C@@](C(=O)N[C@@H](CCCNC(=N)N)C(=O)N[C@H](C(=O)N[C@@H](Cc3c[nH]c4ccccc34)C(N)=O)C(C)C)(C2)NC1=O [FP0217rc, Ac-A-R8-I-L-D-A-H-I-MB-R-V-W-NH2] | > 7.00 | – | 26 µM (≈ 41.2 µg/mL) | –
CCCCCCCC(=O)N[C@@H](C)C(=O)N[C@]1(C)CCN(C)C(=O)OCC=CCOC(=O)N2CC[C@@](C(=O)N[C@@H](CCCNC(=N)N)C(=O)N[C@H](C(=O)N[C@@H](Cc3c[nH]c4ccccc34)C(N)=O)C(C)C)(C2)NC(=O)[C@H]([C@@H](C)CC)NC(=O)[C@H](Cc2c[nH]cn2)NC(=O)[C@H](C)NC(=O)[C@H](CC(=O)O)NC(=O)[C@H](CC(C)C)NC(=O)[C@H]([C@@H](C)CC)NC1=O [FP0597c_c8, Oct-A-MG-I-L-D-A-H-I-MB-R-V-W-NH2] (Octanoyl-A[dαMeDab(Me)]ILDAHI[X1]RVW-NH2; linker 2-9 via X2) | – | – | – | solubility ([2]; Table 2, read-out: Solubility): 2 µM (≈ 3.4 µg/mL)
CCCCCCCCCCCC(=O)N[C@@H](C)C(=O)N[C@]1(C)CCN(C)C(=O)OCC=CCOC(=O)N2CC[C@@](C(=O)N[C@@H](CCCNC(=N)N)C(=O)N[C@H](C(=O)N[C@@H](Cc3c[nH]c4ccccc34)C(N)=O)C(C)C)(C2)NC(=O)[C@H]([C@@H](C)CC)NC(=O)[C@H](Cc2c[nH]cn2)NC(=O)[C@H](C)NC(=O)[C@H](CC(=O)O)NC(=O)[C@H](CC(C)C)NC(=O)[C@H]([C@@H](C)CC)NC1=O [FP0597c_c12, Dodec-A-MG-I-L-D-A-H-I-MB-R-V-W-NH2] (Lauroyl-A[dαMeDab(Me)]ILDAHI[X1]RVW-NH2; linker 2-9 via X2) | – | – | 4 µM (≈ 7.02 µg/mL) | –

Second part, led by results:

pEC50 [1] | Solubility in DPBS ([2]; DPBS) | solubility [2, 3] | SMILES | also measured
< 5.30 | – | 111 µM (≈ 171 µg/mL) | CC[C@H](C)[C@@H]1NC(=O)[C@H](Cc2c[nH]cn2)NC(=O)[C@H](C)NC(=O)[C@H](CC(=O)O)NC(=O)[C@H](CC(C)C)NC(=O)[C@H]([C@@H](C)CC)NC(=O)[C@](C)(NC(=O)[C@H](C)NC(C)=O)CCCCCCC=CCN2CC[C@@](C(=O)N[C@@H](CCCNC(=N)N)C(=O)N[C@H](C(=O)N[C@@H](Cc3c[nH]c4ccccc34)C(N)=O)C(C)C)(C2)NC1=O [FP0217a, Ac-A-R8-I-L-D-A-H-I-MB-R-V-W-NH2] (Ac-A[R8]ILDAHI[X4]RVW-NH2; staple 2-9) | solubility [2, 4]: 111 µM (≈ 171 µg/mL)
> 7.00 | – | 14 µM (≈ 21.2 µg/mL) | CC[C@H](C)[C@@H]1NC(=O)[C@H](Cc2c[nH]cn2)NC(=O)[C@H](C)NC(=O)[C@H](CC(=O)O)NC(=O)[C@H](CC(C)C)NC(=O)[C@H]([C@@H](C)CC)NC(=O)[C@](C)(NC(C)=O)CCCCCCC=CCOC(=O)N2CC[C@@](C(=O)N[C@@H](CCCNC(=N)N)C(=O)N[C@H](C(=O)N[C@@H](Cc3c[nH]c4ccccc34)C(N)=O)C(C)C)(C2)NC1=O [FP0220c, Ac-R8-I-L-D-A-H-I-MB-R-V-W-NH2] | –
6.30 to 7.00 | – | 236 µM (≈ 364 µg/mL) | CC[C@H](C)[C@@H]1NC(=O)[C@H](Cc2c[nH]cn2)NC(=O)[C@H](C)NC(=O)[C@H](CC(=O)O)NC(=O)[C@H](CC(C)C)NC(=O)[C@H]([C@@H](C)CC)NC(=O)[C@](C)(NC(=O)[C@H](C)NC(C)=O)CCCCCC=CCN(C)CC[C@@](C)(C(=O)N[C@@H](CCCNC(=N)N)C(=O)N[C@H](C(=O)N[C@@H](Cc2c[nH]c3ccccc23)C(N)=O)C(C)C)NC1=O [FP0503a, Ac-A-R7-I-L-D-A-H-I-MF-R-V-W-NH2] (Ac-A[X5]ILDAHI[X6]RVW-NH2; staple 2-9) | solubility [2, 4]: 236 µM (≈ 364 µg/mL)
